Measurements from patent US20230181564A1, “Potent Tetrahydroquinolone Eliminates Apicomplexan Parasites” (The University of Chicago, priority 2020, published 2023).

Experiments:
bovine cytochrome bc1 = target: T1, bovine cytochrome bc1 (Bos taurus, UniProt P00157); assay: Bovine cytochrome bc1 activity assay; type: biochemical; settings: read-out: Inhibition of bovine Cytbc1 activity
T1 construct: Whole fresh bovine heart was collected after slaughter; from tissue; host or cells: bovine heart mitochondria; DDM-solubilised, DEAE-Sepharose, Sephacryl S-300, PEG fractionation
Description: Bovine cytochrome bc1 activity assays. Bovine cytochrome bc, inhibition assay was carried out in 50 mM KPi pH 7.5, 2 mM EDTA, 10 mM KCN, 30 μM equine heart cytochrome c (Sigma Aldrich), and 2.5 nM bovine cytochrome bc, at room temperature. 20 mM inhibitors dissolved in DMSO were added to the assay at a desired concentration without prior incubation. […] The reaction was initiated by the addition of 50 μM decylubiquinol (Abcam). The reduced cytochrome c was monitored by the different absorption between 550 and 542 nm using extinction coefficient of 18.1 mM^−1 cm^−1 in a SPECTRAmax Plus 384 UV-visible Spectrometer. The initial kinetic rate is determined as a zero-order reaction and used as the specific activity of cytochrome bc1.

[1] = target: T2, P. falciparum bc1 complex cytochrome c reductase (Pfbc1) (Plasmodium falciparum, UniProt Q02768); assay: Pfbc1 native assay (cytochrome c reduction by parasite extract); type: biochemical; settings: atovaquone 1 μM positive control, mean±S.D., N=4
T2 construct: Parasite extract was then prepared by disruption with a sonicating probe; endogenous in cells; host or cells: P. falciparum 3D7 blood-stage parasites freed by saponin, sonicated extract
T2 sequence (Q02768 1-376): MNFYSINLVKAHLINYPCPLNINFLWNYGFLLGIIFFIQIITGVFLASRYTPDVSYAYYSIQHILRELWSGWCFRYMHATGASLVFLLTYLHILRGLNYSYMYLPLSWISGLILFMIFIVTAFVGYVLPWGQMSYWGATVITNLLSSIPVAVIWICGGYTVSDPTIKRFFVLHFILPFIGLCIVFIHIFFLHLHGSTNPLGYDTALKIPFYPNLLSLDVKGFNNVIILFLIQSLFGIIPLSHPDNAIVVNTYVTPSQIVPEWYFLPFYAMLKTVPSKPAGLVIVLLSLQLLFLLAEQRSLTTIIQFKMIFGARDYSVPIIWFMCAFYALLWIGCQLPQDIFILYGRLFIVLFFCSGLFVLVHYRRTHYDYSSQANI
Description: Enzyme assays. P. falciparum 3D7 strain were obtained from the Liverpool School of Tropical Medicine. Protease cocktail inhibitor was obtained from Roche. Bradford protein assay dye reagent was obtained from Bio-Rad. All other reagents were obtained from Sigma-Aldrich. Decylubiquinol was produced as per Fisher et al. (2009). In brief, 25 mg of decylubiquinone were dissolved in 400 μl of nitrogen-saturated hexane. An equal volume of aqueous 1 M sodium dithionite was added, and the mixture vortexed until colorless. […] Concentrations of decylubiquinol was determined spectrophotometrically on a Cary 300 Bio UV/visible spectrophotometer (Varian, UK) from absolute spectra, using ε288-320=8.1 mM-1·cm^−1. […]
The protocol for the preparation of parasite extract was adapted from Fisher et al. Free parasites were prepared from infected erythrocytes pooled from five T75 flasks, by adding 5 volumes of 0.15% (w/v) saponin in phosphate-buffered saline (137 mM NaCl, 2.7 mM KCl, 1.76 mM K2HPO4, 8.0 mM Na2HPO4, 5.5 mM D-glucose, pH 7.4) for 5 min, followed by three washes by centrifugation in RPMI containing HEPES (25 mM), and a final resuspension in potassium phosphate buffer (50 mM K2HPO4, 50 mM KH2PO4, 2 mM EDTA, pH7.4) containing a protease inhibitor cocktail (Complete Mini; Roche). […] The protein concentration of the parasite extract was determined by Bradford protein assay (Bio-Rad). […]

Cc1[nH]c2c(c(=O)c1-c1ccc(Oc3ccc(OC(F)(F)F)cc3)cc1)CCCC2 [JAG021, 2-methyl-3-(4-(4-(trifluoromethoxy)phenoxy)phenyl)-5,6,7,8-tetrahydroquinolin-4-one]
inhibition at 0.1 µM (bovine cytochrome bc1; 0.1 μM): 36% | inhibition at 1 µM (bovine cytochrome bc1; 1 μM): 63% | inhibition at 1 µM [1]: 86.4 ± 3.2%
